In brackets after ≈: the same amount, converted by molar mass. Read-outs that look alike come from different tables or passages of the source.
How the values were obtained:
Streptococcus salivarius = assay: Antibacterial spectra in vitro, MIC on agar plates; format: cell-based; settings: IFM No. 2010, glucose (0.5%) agar, 37° C., 24 hours
mouse leukaemia L 1210 = assay: Cytotoxic effect in cell cultures of mouse leukaemia L 1210; format: cell-based; settings: L1210, read-out: ED50 (cytotoxic effect)
Serratia marcescens = assay: Antibacterial spectra in vitro, MIC on agar plates; format: cell-based; settings: IFM No. 3029, nutrient agar, 37° C., 24 hours
Mycobacterium avium = assay: Antibacterial spectra in vitro, MIC on agar plates; format: cell-based; settings: IFM No. 2054, glucose (0.5%) agar, 37° C., 24 hours
Streptococcus faecalis = assay: Antibacterial spectra in vitro, MIC on agar plates; format: cell-based; settings: Enterococcus faecalis; IFM No. 2001; glucose (0.5%) agar; 37° C., 24 hours
Aspergillus oryzae = assay: Antimicrobial (fungi) MIC on agar plates; format: cell-based; settings: IFM No. 40601, Sabouraud's glucose (2%) agar, 48 hours
Brucella abortus = assay: microbe, parasite or virus in culture; format: cell-based; settings: 24 h
Lewis lung cancer [1] = assay: Effect against Lewis lung cancer according to guidelines of the USA Cancer Institute; format: in vivo; settings: 20 micrograms/mouse/day intraperitoneally for 10 days
Method: (§1) A physiological sodium chloride solution was administered intraperitoneally to the control group while saframycin Yd-1 was given at a dose of 40 micrograms/mouse/day for 10 days i.p. to the group to be treated. Seven days after the last administration, the mice were sacrificed and the spread of metastasis in the lungs was compared. […] In anther experiment, the effect against Lewis lung cancer was evaluated according to the guidelines of the USA Cancer Institute (R. L. Geran et al. Cancer Chemotherapy Reports, Part 3, Vol. 3, No. 2 (1972)).

Escherichia coli F1 = assay: Antibacterial spectra in vitro, MIC on agar plates; format: cell-based; settings: IFM No. 3002, nutrient agar, 37° C., 24 hours
Penicillium expansum = assay: Antimicrobial (fungi) MIC on agar plates; format: cell-based; settings: IFM No. 40618, Sabouraud's glucose (2%) agar, 48 hours
Bacillus cereus = assay: Antibacterial spectra in vitro, MIC on agar plates; format: cell-based; settings: IFM No. 2058, nutrient agar, 37° C., 24 hours
[2] = tested on: Bacillus subtilis PCI 219; assay: Antibacterial spectra in vitro, MIC on agar plates; format: cell-based; settings: PCI219, IFM No. 2060, nutrient agar, 37° C., 24 hours
Nocardia asteroides = assay: Antibacterial spectra in vitro, MIC on agar plates; format: cell-based; settings: IFM No. 0006, glucose (0.5%) agar, 37° C., 24 hours
Mycobacterium phlei = assay: Antibacterial spectra in vitro, MIC on agar plates; format: cell-based; settings: Mycolicibacterium phlei; IFM No. 2052; glucose (0.5%) agar; 37° C., 24 hours
Candida albicans 7N = assay: Antimicrobial (fungi) MIC on agar plates; format: cell-based; settings: IFM No. 40009, Sabouraud's glucose (2%) agar
[3] = tested on: Trichophyton mentagrophytes; assay: Antimicrobial (fungi) MIC on agar plates; format: cell-based; settings: IFM No. 40134, Sabouraud's glucose (2%) agar
[4] = tested on: Corynebacterium diphtheria; assay: Antibacterial spectra in vitro, MIC on agar plates; format: cell-based; settings: IFM No. 2056, glucose (0.5%) agar, 37° C., 24 hours
Method: (§2) With respect to the antimicrobial activities of saframycins Y3 and Yd-1, the antibacterial spectra in vitro, as expressed by their minimum inhibitory concentrations (MIC), are shown in Table 2:
(§3) Medium: A=nutrient agar, B=glucose (0.5%) agar, C=Sabouraud's glucose (2%) agar.
(§4) All MIC-values shown in Table 2 are obtained from cultures on agar plates containing varying amounts of the antibiotic tested at temperatures of 37° C. after an incubation period of 24 hours (bacteria), 48 hours (fungi except candida albicans, 37° C., 48 hours, Trichophyton mentagrophytes.

Pseudomonas aeruginosa = assay: Antibacterial spectra in vitro, MIC on agar plates; format: cell-based; settings: IFM No. 3011, nutrient agar, 37° C., 24 hours
Method: as §2, §3, §4

[5] = tested on: Streptococcus pyogenes Cook; assay: Antibacterial spectra in vitro, MIC on agar plates; format: cell-based; settings: IFM No. 2003, glucose (0.5%) agar, 37° C., 24 hours
Method: as §2, §3, §4

Mycobacterium sp. 607 = assay: Antibacterial spectra in vitro, MIC on agar plates; format: cell-based; settings: IFM No. 2051, glucose (0.5%) agar, 37° C., 24 hours
Method: as §2, §3, §4

Corynebacterium xeriosis = assay: Antibacterial spectra in vitro, MIC on agar plates; format: cell-based; settings: IFM No. 2057, glucose (0.5%) agar, 37° C., 24 hours
[6] = tested on: Ehrlich ascitic tumor cells; assay: Survival of ICR mice inoculated with Ehrlich ascitic tumor cells; format: in vivo; settings: for mice survived: 20 micrograms/mouse/day intraperitoneally for 7 days, from 24 hours after inoculation, 10 mice per group
Method: In another test, ICR mice (10 mice per group) were inoculated with Ehrlich ascitic tumor cells. Twenty-four hours after the inoculation the dose of 20 micrograms/mouse/day of saframycin Y3 or 20 micrograms/mouse/day of saframycin Yd-1 was administered intraperitoneally. The administration was continued for 7 days. […] When 5 micrograms/mouse/day of saframycin Y3 or 4 micrograms/mouse/day of Yd-1 were administered, 60-70% of the mice survived for 20 days or more.

[7] = tested on: Streptococcus pyogenes 090 R; assay: Antibacterial spectra in vitro, MIC on agar plates; format: cell-based
Saccharomyces cerevisiae = assay: Antimicrobial (fungi) MIC on agar plates; format: cell-based; settings: IFM No. 40025, Sabouraud's glucose (2%) agar, 48 hours
mouse leukemia L 1210 = assay: Effect against mouse leukemia L 1210 in BDF1 mice (US National Cancer Research Institute procedure); format: in vivo; settings: for survival effect compared with critical level of effectiveness prescribed by the research institute: 10 micrograms/mouse/day intraperitoneally for one week; for survival effect [T/C×100]: 10 micrograms/mouse/day intraperitoneally for one week from 24 hours after transplantation
From the text: In another test, the effect of saframycins Y3 and Yd-1 against mouse leukemia L 1210 was examined by using BDF1 mice according to the procedure as established by the US National Cancer Research Institute.

[8] = tested on: Staphylococcus aureus Smith; assay: Antibacterial spectra in vitro, MIC on agar plates; format: cell-based; settings: IFM No. 2018, nutrient agar, 37° C., 24 hours
Staphylococcus albus = assay: Antibacterial spectra in vitro, MIC on agar plates; format: cell-based; settings: IFM No. 2013, nutrient agar, 37° C., 24 hours
Aspergillus niger = assay: Antimicrobial (fungi) MIC on agar plates; format: cell-based; settings: IFM No. 40606, Sabouraud's glucose (2%) agar, 48 hours
Rhodotorula glutinus = assay: Antimicrobial (fungi) MIC on agar plates; format: cell-based; settings: IFM No. 40057, Sabouraud's glucose (2%) agar, 48 hours
Sarcina lutea = assay: Antibacterial spectra in vitro, MIC on agar plates; format: cell-based; settings: Micrococcus luteus; IFM No. 2066; nutrient agar; 37° C., 24 hours
Staphylococcus citreus = assay: Antibacterial spectra in vitro, MIC on agar plates; format: cell-based; settings: IFM No. 2025, nutrient agar, 37° C., 24 hours
[9] = tested on: Staphylococcus aureus 209 P; assay: Antibacterial spectra in vitro, MIC on agar plates; format: cell-based; settings: IFM No. 2014, nutrient agar, 37° C., 24 hours
Shigella dysenteria = assay: Antibacterial spectra in vitro, MIC on agar plates; format: cell-based; settings: IFM No. 3024, nutrient agar, 37° C., 24 hours
Salmonella typhimurium = assay: Antibacterial spectra in vitro, MIC on agar plates; format: cell-based; settings: Salmonella enterica, IFM No. 3023, nutrient agar, 37° C., 24 hours
Klebsiella pneumoniae = assay: Antibacterial spectra in vitro, MIC on agar plates; format: cell-based; settings: IFM No. 3008, nutrient agar, 37° C., 24 hours
Lewis lung cancer [10] = assay: Effect against metastasis of Lewis lung cancer (foot pad inoculation, leg amputation); format: in vivo, BDF1 mice; settings: 40 micrograms/mouse/day for 10 days i.p.; seven days after last administration; control: abundant metastasis
Method: In another test, the effect of saframycin Yd-1 against metastasis of Lewis lung cancer was determined in the following manner:
The foot pads of the left hind legs of BDF1 mice having a body weight of 20 g were subcutaneously inoculated with 1.5×10^5 Lewis lung cancer cells. After seven days the legs were amputated.
as §1

| SMILES | MIC (Streptococcus salivarius) | IC50 (mouse leukaemia L 1210) | MIC (Serratia marcescens) | MIC (Mycobacterium avium) | MIC (Streptococcus faecalis) | MIC (Aspergillus oryzae) | MIC (Brucella abortus) | MIC (Escherichia coli F1) | MIC (Penicillium expansum) | MIC (Bacillus cereus) | MIC [2] | MIC (Nocardia asteroides) | MIC (Mycobacterium phlei) | MIC (Candida albicans 7N) | MIC [3] | MIC [4] | MIC (Pseudomonas aeruginosa) | MIC [5] | MIC (Mycobacterium sp. 607) | MIC (Corynebacterium xeriosis) | also measured |
| --- | --- | --- | --- | --- | --- | --- | --- | --- | --- | --- | --- | --- | --- | --- | --- | --- | --- | --- | --- | --- | --- |
| CCC(N)C(=O)NCC1C2=C(CC3C4C5=C(CC(C(C#N)N13)N4C)C(=O)C(C)=C(OC)C5=O)C(=O)C(C)=C(OC)C2=O (stereo not drawn) [Saframycin Yd-1] | 50 µg/mL (≈ 86.6 µM) | 0.002 µg/mL (≈ 0.00346 µM) | 50 µg/mL (≈ 86.6 µM) | 50 µg/mL (≈ 86.6 µM) | 10 µg/mL (≈ 17.3 µM) | > 100 µg/mL | 1 µg/mL (≈ 1.73 µM) | 50 µg/mL (≈ 86.6 µM) | > 100 µg/mL | 50 µg/mL (≈ 86.6 µM) | 1 µg/mL (≈ 1.73 µM) | 1 µg/mL (≈ 1.73 µM) | 50 µg/mL (≈ 86.6 µM) | > 100 µg/mL | > 100 µg/mL | < 0.001 µg/mL | > 100 µg/mL | < 0.001 µg/mL | > 100 µg/mL | 1 µg/mL (≈ 1.73 µM) | T/C×100 (Lewis lung cancer [1]): ≥ 140%; preventing effect against cancer metastasis as compared to saframycin A (Lewis lung cancer [1]): higher preventing effect; mice survived for 20 days or more ([6]; 4 micrograms/mouse/day): 60-70%; mice survived [6]: all mice survived; MIC ([7]; 24 h): 0.01 µg/mL (≈ 0.0173 µM); MIC (Saccharomyces cerevisiae): > 100 µg/mL; survival effect compared with critical level of effectiveness prescribed by the research institute (mouse leukemia L 1210): exceed the critical level of effectiveness; survival effect [T/C×100] (mouse leukemia L 1210): 140%; MIC [8]: 1 µg/mL (≈ 1.73 µM); MIC (Staphylococcus albus): 10 µg/mL (≈ 17.3 µM); MIC (Aspergillus niger): > 100 µg/mL; MIC (Rhodotorula glutinus): > 100 µg/mL; MIC (Sarcina lutea): 1 µg/mL (≈ 1.73 µM); MIC (Staphylococcus citreus): 0.1 µg/mL (≈ 0.173 µM); MIC [9]: 1 µg/mL (≈ 1.73 µM); MIC (Shigella dysenteria): 10 µg/mL (≈ 17.3 µM); MIC (Salmonella typhimurium): 50 µg/mL (≈ 86.6 µM); MIC (Klebsiella pneumoniae): 10 µg/mL (≈ 17.3 µM); spread of metastasis in the lungs (Lewis lung cancer [10]): metastasis was scarcely observed |
| COC1=C(C)C(=O)C2=C(C1=O)C1C3CC4=C(C(=O)C(OC)=C(C)C4=O)C(CNC(=O)C(C)N)N3C(C#N)C(C2)N1C (stereo not drawn) [Saframycin Y3] | 50 µg/mL (≈ 88.7 µM) | 0.0016 µg/mL (≈ 0.00284 µM) | 50 µg/mL (≈ 88.7 µM) | 50 µg/mL (≈ 88.7 µM) | 10 µg/mL (≈ 17.7 µM) | > 100 µg/mL | 1 µg/mL (≈ 1.77 µM) | 50 µg/mL (≈ 88.7 µM) | > 100 µg/mL | 50 µg/mL (≈ 88.7 µM) | 10 µg/mL (≈ 17.7 µM) | 50 µg/mL (≈ 88.7 µM) | 50 µg/mL (≈ 88.7 µM) | > 100 µg/mL | > 100 µg/mL | < 0.001 µg/mL | > 100 µg/mL | < 0.001 µg/mL | > 100 µg/mL | 1 µg/mL (≈ 1.77 µM) | mice survived for 20 days or more ([6]; 5 micrograms/mouse/day): 60-70%; mice survived [6]: all mice survived; MIC ([7]; IFM No. 2006, glucose (0.5%) agar, 37° C., 24 hours, read-out: MIC): 0.1 µg/mL (≈ 0.177 µM); MIC (Saccharomyces cerevisiae): > 100 µg/mL; survival effect compared with critical level of effectiveness prescribed by the research institute (mouse leukemia L 1210): exceed the critical level of effectiveness; survival effect [T/C×100] (mouse leukemia L 1210): 130%; MIC [8]: 0.1 µg/mL (≈ 0.177 µM); MIC (Staphylococcus albus): 1 µg/mL (≈ 1.77 µM); MIC (Aspergillus niger): > 100 µg/mL; MIC (Rhodotorula glutinus): > 100 µg/mL; MIC (Sarcina lutea): 1 µg/mL (≈ 1.77 µM); MIC (Staphylococcus citreus): 0.1 µg/mL (≈ 0.177 µM); MIC [9]: 1 µg/mL (≈ 1.77 µM); MIC (Shigella dysenteria): 10 µg/mL (≈ 17.7 µM); MIC (Salmonella typhimurium): 50 µg/mL (≈ 88.7 µM); MIC (Klebsiella pneumoniae): 10 µg/mL (≈ 17.7 µM) |
